Experimental data taken from US20200316096A1, “COMBINATION OF DIET AND DRUG THERAPY FOR TREATING CANCER” (Trustees of Boston College, priority 2019, published 2020).

Test system: VM-M3 tumour
Assay: VM-M3 orthotopic GBM model: bioluminescence imaging and survival
Format: in vivo, mouse (VM/Dk)
Procedure: FIGS. 1A-1F. Restricted Ketogenic diet with DON reduces progression and mortality of the VM-M3 GBM. VM/Dk inbred mice were implanted orthotopically with a small (1.0 mm×1.0 mm) tissue fragment from the VM-M3 tumour on day 0. The implanted mice were divided into two groups on day 4 and were fed either; a standard chow diet unrestricted or ad-libitum (SD-UR), or a ketogenic diet (KD-R) in restricted amounts to reduce body weight by about 15%. DON (0.1-1.0 mg/kg) was injected i.p. 7 days following orthotopic tumour implantation. […] 1A. All mice were imaged in-vivo and terminated on day 14 or 15 when all control mice appeared moribund (experiments 1 & 2). For experiment 1, bioluminescence was scored from 0-4, following the administration of lower doses of DON (0.1 and 0.5 mg/kg). Values are expressed as the mean+/−SEM and a one-way analysis of variance followed by Tukey's post hoc test was performed to determine the significance between groups, FIG. 1B. In experiment 2, in-vivo bioluminescent photon values were obtained following the administration of DON (1.0 mg/kg) in mice under the KD-R, FIG. 1C. The average in-vivo bioluminescent photon values were calculated for the KD-R (n=4) and KD-R+DON (n=8) mice in experiment 2. Values are presented as the mean+/−SEM and the P value was calculated using a two-tailed student's t-test, FIG. 1D. in-vivo bioluminescent images of 3 representative mice from both study groups in experiment 2 are shown, FIG. 1E. For experiment 3, a survival study was performed, and a Kaplan Meier survival plot was configured for SD-UR (n=15), SD-UR+DON (n=10), KD-R (n=10), and KD-R+DON (n=10), FIG. 1F.
FIGS. 2A-2C. Restricted Ketogenic diet with DON reduces VM-M3 GBM bioluminescence. VM/Dk mice were implanted with a VM-M3 tumour as described in the previous figures. Mouse brains were imaged ex-vivo on day 14 or 15. Mice were imaged ex-vivo after in-vivo bioluminescent imaging, as described in the previous figures. Individual ex-vivo bioluminescent photon values were measured following the administration of DON (1.0 mg/kg) in KD-R mice, FIG. 2A. From the individual measurements, the average ex-vivo bioluminescent photon value was calculated for both the KD-R (n=6) and KD-R+DON (n=8) mouse groups. Values are presented as the mean+/−SEM and significance of differences was determined following a two-tailed student's t-test, FIG. 2B. ex-vivo bioluminescent images of brains from representative mice in experiment 2 are shown in comparison to SD-UR, FIG. 2C.
To observe the effect of the KD-R and DON on the VM-M3 tumour model, three consecutive experiments were conducted. Experiment 1 included four groups (SD-UR; SD-UR+DON; KDR; KDR+DON) with lower DON dosages (0.1 and 0.5 mg/kg). Experiment 2 involved both in-vivo and ex-vivo imaging of two study groups (KD-R and KD-R+DON) following the administration of a higher dose of DON (1.0 mg/kg). Experiment 3, a survival study, also used the higher DON dose (1.0 mg/kg) and included the four groups from Experiment 1 (SD-UR; SD-UR+DON; KDR; KDR+DON) ( ).
The KD-R+DON treatment was performed as outlined in the study timeline (FIG. 1A). In experiment 1, two doses of DON (0.1 and 0.5 mg/kg) were used in both the SD-UR and KD-R groups (FIG. 1B). d-luciferin was injected i.p. 15 days after tumour implantation, and in-vivo bioluminescence imaging was performed. The total VM-M3 tumour bioluminescence photon values were scored from 0 to 4, with 0 being the baseline value and 4 being the highest value.
Experiment 2 involved a larger number of mice that were treated with a higher dose of DON (1.0 mg/kg). Due to the observed synergy between the KD-R and DON in experiment 1, only the KD-R group was selected for further experiments. All mice in this experiment expressed a significant amount of tumour burden as observed by in-vivo imaging on day 7 (data not shown). […] All untreated SD-UR control mice died between day 15 and 18. […]

Compound: [N-]=[N+]=CC(=O)CC[C@H](N)C(=O)O [DON, 6-diazo-5-oxo-L-norleucine]
- reduction in tumour growth (DON 0.5 mg/kg once or twice per week, bioluminescent imaging): 60 to 70%
- resolution of the brain tumour (DON 1.0 mg/kg, same schedule, bioluminescent imaging): near complete resolution
- lower photon value compared to control SD-UR group (experiment 1, DON 0.1 and 0.5 mg/kg, in-vivo bioluminescence day 15): 44%
- average ex-vivo photon value (experiment 2, DON 1.0 mg/kg, FIG. 2B): significant reduction
- mice with baseline value of in-vivo bioluminescence (experiment 2, KD-R fed mice, DON 1.0 mg/kg, day 14 or 15): 7 out of the 8
- individual ex-vivo bioluminescent values (experiment 2, KD-R fed mice, DON 1.0 mg/kg, resected brains): below the baseline value
- average in-vivo photon value (experiment 2, KD-R fed mice, DON 1.0 mg/kg, versus KD-R): significant reduction
